Values after ≈ are worked out from the molar mass of the structure shown. Like-named read-outs stand apart in the source and are kept apart here.
Assays:
[1] = Clinical PK of HDM201 in patients (non-compartmental and population PK), study HDM201X2101; format: in vivo, human; conditions: for Cmax: read-out: Cmax, Geo Mean (% CV); for AUC(0-t): read-out: AUClast (0-24 h), Geo Mean (% CV); for dose proportionality of PK (AUClast and Cmax): over the dose range studied, single and repeated doses
Method: Pharmacokinetic data have been evaluated throughout the course of the dose escalation. Two HDM201 drug variants have been evaluated during the course of the study (refer to the protocol for further details). […] Furthermore, an integrated analysis of all available HDM201 concentrations was conducted using a population approach. The PK of HDM201 was best described by a 1-compartment PK model with a delayed zero- and first-order absorption process, and a linear clearance. Body weight was identified as a statistically significant covariate on apparent central volume of distribution (Vc/F), in which Vc/F increased with increasing body weight.
Inter-patient variability (CV % Geo-mean) in exposure was generally low to moderate. Compartmental population PK modeling of NVP-HDM201 was used to estimate the individual average plasma concentration for Cycle 1 and to allow comparison with preclinical average concentration for tumor stasis derived by PK/PD tumor growth modeling.
The PK of HDM201 have been evaluated in the ongoing single agent Phase I clinical trial in patients with solid tumors and hematological malignancies (HDM201X2101). Patients have been treated with a single dose on Day 1 in a three-week cycle (q3w, regimen 1A), with a single dose on Day 1 and Day 8 in a four-week cycle (d1 and d8 of 4 w cycle, regimen 1B), or with daily dosing for the first 7 or 14 days in a four-week cycle (regimen 2C [q.d., 1 w on/3 w off] or regimen 2A [q.d., 2 w on/2 w off], respectively). PK assessments were conducted following single dose and repeated administration. Preliminary PK parameters from non-compartmental analysis of plasma concentration-time profiles are summarized by dose regimen and tumor type (data cut-off 1 Apr. 2016). PK parameters for Regimen 2A (Day 1 and 14 of Cycle 1 for doses from 1 to 20 mg) and Regimen 1A (Day 1 of Cycle 1 for doses from 12.5 to 350 mg) in solid tumor patients are summarized as representative of the PK for daily and less frequent dosing regimens (Tables 9, 10 and 11).
Following oral dosing (HDM201 capsule, fasted), the median time to reach maximum plasma concentrations ranged from 2.0 to 5.8 h across the dose range (2 to 350 mg). With the daily dosing regimen, HDM201 steady-state was generally reached by Day 8, and accumulation was less than 2-fold. […]
Furthermore, the individual PK data was best described by a 1-compartment PK model with a delayed zero- and first-order absorption process (data cut-off 1 Apr. 2016). […] Body weight was identified as a statistically significant covariate on Vc/F.

[2] = tested on: SJSA-1 cell line; assay: Cellular activity in SJSA-1 cell line; format: cell-based; conditions: Homo sapiens
[3] = Compartmental PK modeling of average concentration during cycle 1, patients with hematological tumors; format: in vivo, human; conditions: all patients with measured PK, four regimens
Method: Pharmacokinetic data have been evaluated throughout the course of the clinical study. […] Furthermore, an integrated analysis of all available HDM201 concentrations was conducted using a population approach. The PK of HDM201 was best described by a 1-compartment PK model with a delayed zero- and first-order absorption process, and a linear clearance. Body weight was identified as a statistically significant covariate on apparent central volume of distribution (Vc/F), in which Vc/F increased with increasing body weight.
Compartmental PK modeling was used to estimate the individual average concentration during cycle 1 for patients with hematological tumors treated following the four different (FIG. 7). For all patients with measured PK, the estimated average drug concentrations during cycle 1 were above the most conservative average tumor stasis concentration of about 41 ng/mL per cycle determined from PKPD modeling of preclinical data (human SJSA-1 xenograft rat model).

[4] = human, plasma, oral, 20 mg, Regimen 2A 20 mg daily, Day 14, solid malignancies, N = 4
[5] = human, plasma, oral, 20 mg, Regimen 2A 20 mg, Day 1 single dose, solid malignancies, N = 5
[6] = human, plasma, oral, 250 mg, Regimen 1A 250 mg, Day 1 single dose, solid malignancies, N = 6
[7] = human, plasma, oral, 350 mg, Regimen 1A 350 mg, Day 1 single dose, solid malignancies, N = 5

COc1ncc(-c2nc3c(n2C(C)C)[C@H](c2ccc(Cl)cc2)N(c2cc(Cl)cn(C)c2=O)C3=O)c(OC)n1 [HDM201, (S)-5-(5-Chloro-1-methyl-2-oxo-1,2-dihydro-pyridin-3-yl)-6-(4-chloro-phenyl)-2-(2,4-dimethoxy-pyrimidin-5-yl)-1-isopropyl-5,6-dihydro-1H-pyrrolo[3,4-d]imidazol-4-one]
Tmax ([1]; human, plasma, oral, 7.5 mg, Regimen 2A 7.5 mg daily, Day 14, solid malignancies, N = 2, read-out: Tmax, median): 3.9 h
Cmax ([1]; human, plasma, oral, 7.5 mg, Regimen 2A 7.5 mg, Day 1 single dose, solid malignancies, N = 4): 39 ng/mL
Tmax ([1]; human, plasma, oral, 7.5 mg, Regimen 2A 7.5 mg, Day 1 single dose, solid malignancies, N = 4, read-out: Tmax, median): 5.8 h
Tmax ([1]; human, plasma, oral, 12.5 mg, Regimen 1A 12.5 mg, Day 1 single dose, solid malignancies, N = 1, read-out: Tmax, median): 3.2 h
Tmax ([1]; human, plasma, oral, 15 mg, Regimen 2A 15 mg daily, Day 14, solid malignancies, N = 4, read-out: Tmax, median): 3 h
Tmax ([1]; human, plasma, oral, 15 mg, Regimen 2A 15 mg, Day 1 single dose, solid malignancies, N = 4, read-out: Tmax, median): 3.1 h
AUC(0-t) [1, 4]: 1260 ng·h/mL
Cmax [1, 4]: 214 ng/mL
Tmax ([1]; human, plasma, oral, 20 mg, Regimen 2A 20 mg daily, Day 14, solid malignancies, N = 4, read-out: Tmax, median): 4 h
AUC(0-t) [1, 5]: 2300 ng·h/mL
Cmax [1, 5]: 164 ng/mL
Tmax ([1]; human, plasma, oral, 20 mg, Regimen 2A 20 mg, Day 1 single dose, solid malignancies, N = 5, read-out: Tmax, median): 2 h
Cmax ([1]; human, plasma, oral, 25 mg, Regimen 1A 25 mg, Day 1 single dose, solid malignancies, N = 1): 100 ng/mL
Tmax ([1]; human, plasma, oral, 25 mg, Regimen 1A 25 mg, Day 1 single dose, solid malignancies, N = 1, read-out: Tmax, median): 2.1 h
Tmax ([1]; human, plasma, oral, 50 mg, Regimen 1A 50 mg, Day 1 single dose, solid malignancies, N = 4, read-out: Tmax, median): 3 h
half-life ([1]; human, plasma, oral, 50 mg, Regimen 1A 50 mg, Day 1 single dose, solid malignancies, N = 4, read-out: T½, Geo Mean (% CV) (converted)): 11.8 h
half-life ([1]; human, plasma, oral, 100 mg, Regimen 1A 100 mg, Day 1 single dose, solid malignancies, N = 3, read-out: T½, Geo Mean (% CV) (converted)): 16.3 h
Tmax ([1]; human, plasma, oral, 100 mg, Regimen 1A 100 mg, Day 1 single dose, solid malignancies, N = 4, read-out: Tmax, median): 3.5 h
half-life ([1]; human, plasma, oral, 200 mg, Regimen 1A 200 mg, Day 1 single dose, solid malignancies, N = 4, read-out: T½, Geo Mean (% CV) (converted)): 15.1 h
Tmax ([1]; human, plasma, oral, 200 mg, Regimen 1A 200 mg, Day 1 single dose, solid malignancies, N = 5, read-out: Tmax, median): 3 h
half-life ([1]; human, plasma, oral, 250 mg, Regimen 1A 250 mg, Day 1 single dose, solid malignancies, N = 5, read-out: T½, Geo Mean (% CV) (converted)): 15.3 h
AUC(0-t) [1, 6]: 23900 ng·h/mL
Cmax [1, 6]: 1070 ng/mL
Tmax ([1]; human, plasma, oral, 250 mg, Regimen 1A 250 mg, Day 1 single dose, solid malignancies, N = 6, read-out: Tmax, median): 3.5 h
half-life ([1]; human, plasma, oral, 350 mg, Regimen 1A 350 mg, Day 1 single dose, solid malignancies, N = 4, read-out: T½, Geo Mean (% CV) (converted)): 15.1 h
AUC(0-t) [1, 7]: 50500 ng·h/mL
Cmax [1, 7]: 1940 ng/mL
Tmax ([1]; human, plasma, oral, 350 mg, Regimen 1A 350 mg, Day 1 single dose, solid malignancies, N = 5, read-out: Tmax, median): 4.1 h
half-life ([1]; human, plasma, oral, after Day 1 single dose (50-350 mg), read-out: Median half-life): 13.7 to 23.1 h
half-life ([1]; human, plasma, oral, after a single dose (50 to 350 mg), read-out: Mean T½): 11.8 to 16.3 h
Vd/F ([1]; human, plasma, oral, population PK, 1-compartment model, read-out: apparent volume of distribution of the central compartment (Vc/F), mean population estimate): 119 L
Tmax ([1]; human, plasma, po, across dose range 2 to 350 mg, read-out: median time to reach maximum plasma concentrations (Tmax)): 2 to 5.8 h
dose proportionality of PK (AUClast and Cmax) [1]: approximately dose proportional
dose proportionality of PK (AUClast and Cmax) ([1]; listed as NVP-HDM201): no major deviations from dose proportionality
inter-individual variability of CL/F ([1]; population PK): 48%
inter-individual variability of Vc/F ([1]; population PK): 30%
apparent oral clearance (CL/F), mean population estimate ([1]; population PK, 1-compartment model): 6.18 L/h
patients with estimated average concentration per cycle near or above tumor stasis concentration ([1]; regimen 1B 120 mg, out of 9 patients): 7
IC50 [2]: 0.0294 µg/mL (≈ 0.0529 µM)
estimated average concentration during cycle 1 relative to tumor stasis concentration (about 41 ng/mL) [3]: above

Source: US10966978B2, “Dose and regimen for HDM2-p53 interaction inhibitors” (Novartis AG, priority 2016, dated 2021)
